Test results reported in the supplement of paper PMC10307832.

Legend:
Test in all cases: relative viability (nuclei count vs DMSO), 5 days (fraction); higher = more cells survive
XMD8-85 + OSI-027 = compound: CN1CCN(CC1)C2=CC(=C(C=C2)NC3=NC=C4C(=N3)N(C5=CC=CC=C5C(=O)N4C)C)OC [XMD8-85] + COc1cccc2cc(-c3nc([C@H]4CC[C@H](C(=O)O)CC4)n4ncnc(N)c34)[nH]c12 [OSI-027] (partner 0.5 µM)
Procedure, shortened: (§1)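 Relative viability divides the nuclei count in treated wells by that in vehicle wells. Lung cancer cell lines were seeded in 1536-well plates, dosed by pin tool the next day, and fixed and stained after 5 days in one step with final 0.05% Triton X-100, 1% formaldehyde and 1 ug/ml Hoechst. Dosing was a single drug or a fixed anchor-drug dose plus five library-drug doses (not always all listed) in √10 steps, and values are medians of duplicate plates imaged at 4×.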

XMD8-85 + Alpelisib = compound: CN1CCN(CC1)C2=CC(=C(C=C2)NC3=NC=C4C(=N3)N(C5=CC=CC=C5C(=O)N4C)C)OC [XMD8-85] + Cc1nc(NC(=O)N2CCC[C@H]2C(N)=O)sc1-c1ccnc(C(C)(C)C(F)(F)F)c1 [Alpelisib] (partner 2 µM)
Procedure, shortened: as §1

XMD8-85 + Dasatinib = compound: CN1CCN(CC1)C2=CC(=C(C=C2)NC3=NC=C4C(=N3)N(C5=CC=CC=C5C(=O)N4C)C)OC [XMD8-85] + Cc1nc(Nc2ncc(C(=O)Nc3c(C)cccc3Cl)s2)cc(N2CCN(CCO)CC2)n1 [Dasatinib] (partner 0.075 µM)
Procedure, shortened: as §1

4EGI-1 + Pictilisib = compound: O=C(O)C(Cc1ccccc1[N+](=O)[O-])=NNc1nc(-c2ccc(Cl)c(Cl)c2)cs1 (mixture of isomers) [4EGI-1] + CS(=O)(=O)N1CCN(Cc2cc3nc(-c4cccc5[nH]ncc45)nc(N4CCOCC4)c3s2)CC1 [Pictilisib] (partner 1 µM)
Procedure, shortened: as §1

4EGI-1 + Pemetrexed = compound: O=C(O)C(Cc1ccccc1[N+](=O)[O-])=NNc1nc(-c2ccc(Cl)c(Cl)c2)cs1 (mixture of isomers) [4EGI-1] + Nc1nc2[nH]cc(CCc3ccc(C(=O)N[C@@H](CCC(=O)O)C(=O)O)cc3)c2c(=O)[nH]1 [Pemetrexed] (partner 0.2 µM)
Procedure, shortened: as §1

NCI-H1792 gave a relative viability (XMD8-85 + OSI-027; first compound 0.253 µM) of 0.856, a relative viability (XMD8-85 + OSI-027; first compound 2.53 µM) of 0.981 and a relative viability (XMD8-85 + OSI-027; first compound 8 µM) of 0.896. The relative viability (XMD8-85 + Alpelisib; first compound 0.08 µM) was 0.627, the relative viability (XMD8-85 + Alpelisib; first compound 0.253 µM) was 0.642 and the relative viability (XMD8-85 + Alpelisib; first compound 2.53 µM) was 0.562. The relative viability (XMD8-85 + Alpelisib; first compound 8 µM) was 0.723, the relative viability (XMD8-85 + Dasatinib; first compound 0.253 µM) was 0.749 and the relative viability (XMD8-85 + Dasatinib; first compound 2.53 µM) was 1.15. It also gave a relative viability (XMD8-85 + Dasatinib; first compound 8 µM) of 0.85, a relative viability (4EGI-1 + Pictilisib; first compound 0.5 µM) of 0.321 and a relative viability (4EGI-1 + Pictilisib; first compound 1.581 µM) of 0.209. For the same cell line, the relative viability (4EGI-1 + Pictilisib; first compound 5 µM) was 0.257, the relative viability (4EGI-1 + Pictilisib; first compound 15.81 µM) was 0.214 and the relative viability (4EGI-1 + Pictilisib; first compound 50 µM) was 0.145. For the same cell line, the relative viability (4EGI-1 + Pemetrexed; first compound 0.5 µM) was 1.05, the relative viability (4EGI-1 + Pemetrexed; first compound 1.581 µM) was 0.952 and the relative viability (4EGI-1 + Pemetrexed; first compound 5 µM) was 0.833. The relative viability (4EGI-1 + Pemetrexed; first compound 15.81 µM) was 0.841 and the relative viability (4EGI-1 + Pemetrexed; first compound 50 µM) was 0.463.
